Values quoted from earlier work, collected in publication PMC11327090, “The Nectin family ligands, PVRL2 and PVR, in cancer immunology and immunotherapy” (Frontiers in Immunology, 2024).

Legend:
[1] = system: non-small cell lung cancer; set-up: method as in PMID 35576957; details: phase II trial
Myeloma cells = system: Myeloma cells; set-up: method as in PMID 19098271; details: treated myeloma cells
breast cancer cell lines = system: breast cancer cell lines; set-up: method as in PMID 30039180; details: in vitro

| Compound | objective response rate [1] | Median progression-free survival ([1]; 95% CI in brackets) | PVRL2 and PVR expression (Myeloma cells) | PVR expression (breast cancer cell lines) |
| --- | --- | --- | --- | --- |
| placebo plus atezolizumab: anti-PD-L1 antibody atezolizumab with placebo, comparator arm of the phase II trial | 16.2% | 3.6 months | – | – |
| N[C@@H](Cc1ccc(N(CCCl)CCCl)cc1)C(=O)O [melphalan] | – | – | upregulate PVRL2 and PVR expression | – |
| COc1cccc2c1C(=O)c1c(O)c3c(c(O)c1C2=O)C[C@@](O)(C(=O)CO)C[C@@H]3O[C@H]1C[C@H](N)[C@H](O)[C@H](C)O1 [Adriamycin] | – | – | upregulate PVRL2 and PVR expression | increases PVR expression |
| CC(C)C[C@H](NC(=O)[C@H](Cc1ccccc1)NC(=O)c1cnccn1)B(O)O [bortezomib] | – | – | upregulate PVRL2 and PVR expression | – |
